Data: patent publication US6407126B1 (priority 1997, dated 2002)
Read-outs that look alike come from different tables or passages of the source.

Test system: Phytophthora infestans
Type: in vivo
Settings: tomato leaves, infected next day, evaluated after 6 days
[1] = 50 ppm active ingredient in the spray liquor
[2] = 100 ppm active ingredient in the spray liquor

| Compound | Efficacy in % of the untreated control [1] [%] | Efficacy in % of the untreated control [2] [%] | Efficacy in % of the untreated control (25 ppm active ingredient in the spray liquor) [%] | Efficacy in % of the untreated control (12.5 ppm active ingredient in the spray liquor) [%] |
| --- | --- | --- | --- | --- |
| O=C(Nc1ccccc1-c1ccc(F)cc1)c1cccnc1Cl [Compound I.1] | 0 | 0 | – | – |
| CC1(c2ccc(Oc3ccccc3)cc2)OC(=O)N(Nc2ccccc2)C1=O (stereo not drawn) [Compound VI] | 70 | 80 | 70 | – |
| manganese ethylenebis(dithiocarbamate) (zinc complex) [Compound IIa] | – | – | – | 70 |
